We go through 21 molecules from patent publication US7183301B2, “Heterocyclic compounds having antibacterial activity: process for their preparation and pharmaceutical compositions containing them” (Dr. Reddy's Research Foundation, priority 2000, dated 2007).

In brackets after ≈: the same amount, converted by molar mass. Where only a bound is given, the exact number is not on record here.

Series [1] deals with Enterococcus faecalis NCTC 12201 (DRCC 153, R). The series is described as follows: MIC by broth microdilution, Enterococcus DRCC 153 (R). The series is classed as cell-based. The settings on record: NCTC12201, Mueller Hinton Broth, overnight 37° C., strain DRCC 153 (E. faecalis NCTC 12201), read-out: Antimicrobial Screening (MIC) Enterococcus sp 153 R. As for the experimental part: (§1) Minimum Inhibiton Concentrations (MICs) were determined by broth microdilution technique as per the guidelines prescribed om the fifth edition of Approved Standards, NCCLS document M7-A5 Vol 20-No 2, 2000 Villinova, Pa.
(§2) Initial stock solution of the test compound was prepared in DMSO. Subsequent two fold dilutions were carried out in sterile Mueller Hinton Broth (Difco) (MHB).
(§3) Frozen cultures stocks were inoculated into 50 ml sterile MHB in 250 ml Erlyn Meyer flasks.
(§4) Composition of MHB is as follows:
(§5) Flasks were incubated for 4 to 5 h at 35° C. on a rotary shaker at 150 rpm. Inoculum was prepared by diluting the culture in sterile MHB to obtain a turbidity of 0.5 McFarland standard. This corresponds to 1–2×10^8 CFU/ml. The stock was further diluted in sterile broth to obtain 1–2×10^6 CFU/ml. 50 μl of the above diluted inoculum was added from 1–10 wells. The plates were incubated overnight at 37° C.

In series [2] the test system is Enterococcus faecium NCTC 12202 (DRCC 154, R). Description: MIC by broth microdilution, Enterococcus DRCC 154 (R). The series is classed as cell-based. The conditions noted are these: NCTC12202, Mueller Hinton Broth, overnight 37° C., strain DRCC 154 (E. faecium NCTC 12202), read-out: Antimicrobial Screening (MIC) Enterococcus sp 154 R. Here is the method: as §1, §2, §3, §4, §5

In series [3] the test system is Staphylococcus aureus ATCC 49951 (DRCC 213, Smith S). The series is described as follows: MIC by broth microdilution, S. aureus DRCC 213 (Smith S). In kind it is cell-based. The settings on record: ATCC49951, Mueller Hinton Broth, overnight 37° C., strain DRCC 213 (ATCC 49951), read-out: Antimicrobial Screening (MIC) Staphylococcus aureus 213 Smith S. As for the experimental part:
as §1, §2, §3, §4, §5

Series [4] has as its system Staphylococcus aureus ATCC 29213 (DRCC 035, S). Description: MIC by broth microdilution, S. aureus DRCC 035 (S). The series is classed as cell-based. The settings on record: ATCC29213, Mueller Hinton Broth, overnight 37° C., strain DRCC 035 (ATCC 29213), read-out: Antimicrobial Screening (MIC) Staphylococcus aureus 035 S. As for the experimental part:
as §1, §2, §3, §4, §5

The subject of series [5] is Enterococcus faecalis ATCC 29212 (DRCC 034, S). Description: MIC by broth microdilution, Enterococcus DRCC 034 (S). In kind it is cell-based. The conditions noted are these: ATCC29212, Mueller Hinton Broth, overnight 37° C., strain DRCC 034 (E. faecalis ATCC 29212), read-out: Antimicrobial Screening (MIC) Enterococcus sp 034 S. Here is the method: as §1, §2, §3, §4, §5

The subject of series [6] is Escherichia coli ATCC 25922 (DRCC 018, S). The series is described as follows: MIC by broth microdilution, E coli DRCC 018 (S). In kind it is cell-based. The settings on record: ATCC25922, Mueller Hinton Broth, overnight 37° C., strain DRCC 018 (ATCC 25922), read-out: Antimicrobial Screening (MIC) E coli 18 S. Here is the method:
as §1, §2, §3, §4, §5

The subject of series [7] is Staphylococcus aureus ATCC 33591 (DRCC 019, MRSA). The series is described as follows: MIC by broth microdilution, S. aureus DRCC 019 (MRSA). The series is classed as cell-based. The settings on record: Mueller Hinton Broth, overnight 37° C., strain DRCC 019 (ATCC 33591), read-out: Antimicrobial Screening (MIC) Staphylococcus aureus 019 MRSA. Here is the method:
as §1, §2, §3, §4, §5

Consider `CC(=S)NC[C@H]1CN(c2cc(F)c(N3CCOC3=O)c(F)c2)C(=O)O1` [Example 76], for which the MIC was 4 µg/mL (≈ 10.8 µM) in series [1]; 4 µg/mL (≈ 10.8 µM) in series [2]; 2 µg/mL (≈ 5.39 µM) in series [3]; 4 µg/mL (≈ 10.8 µM) in series [4]; 4 µg/mL (≈ 10.8 µM) in series [5]; > 32 µg/mL in series [6]. For the same molecule, in series [7], the minimum inhibitory concentration (MIC) turned out to be 2 µg/mL (≈ 5.39 µM).

Consider `CCOC(=S)NC[C@H]1CN(c2ccc(N3CCOC3=O)c(F)c2)C(=O)O1` [Example 89], for which the MIC in series [1] was 8 µg/mL (≈ 20.9 µM); in series [2] it was 8 µg/mL (≈ 20.9 µM); in series [3] it was 4 µg/mL (≈ 10.4 µM); in series [4], 4 µg/mL (≈ 10.4 µM); in series [5], 8 µg/mL (≈ 20.9 µM); in series [6] it was > 32 µg/mL. The minimum inhibitory concentration (MIC) in series [7] was determined as 4 µg/mL (≈ 10.4 µM).

Molecule `COC(=S)NC[C@H]1CN(c2ccc(N3CCN(c4ccccc4)C3=O)c(F)c2)C(=O)O1` [Example 117] returned a melting point of 195 °C.

Take `COCN1CN(c2ccc(N3C[C@H](CNC(=S)OC)OC3=O)cc2F)CC1=O` [Example 127]: the MIC in series [1] is 1 µg/mL (≈ 2.42 µM); in series [2], 1 µg/mL (≈ 2.42 µM); in series [3] it was 1 µg/mL (≈ 2.42 µM); in series [4], 1 µg/mL (≈ 2.42 µM); in series [5], 1 µg/mL (≈ 2.42 µM); in series [7], 0.5 µg/mL (≈ 1.21 µM).

Regarding `COC(=S)NC[C@H]1CN(c2ccc(N3CCN(C)C3=O)c(F)c2)C(=O)O1` [Example 113], the minimum inhibitory concentration (MIC) was 4 µg/mL (≈ 10.5 µM) in series [1]; 8 µg/mL (≈ 20.9 µM) in series [2]; 4 µg/mL (≈ 10.5 µM) in series [3]; 4 µg/mL (≈ 10.5 µM) in series [4]; 4 µg/mL (≈ 10.5 µM) in series [5]; 32 µg/mL (≈ 83.7 µM) in series [6]. For the same molecule, in series [7], the MIC worked out at 2 µg/mL (≈ 5.23 µM).

Take `CC(=S)NC[C@H]1CN(c2cc(F)c(N3CCOC3=O)c(F)c2)C(=O)O1` [Example 77]: the melting point is 168 °C.

In turn, `COC(=S)NC[C@H]1CN(c2ccc(N3CCN(Cc4ccccc4)C3=O)cc2)C(=O)O1` [Example 115] gave a melting point of 160 °C.

For `CC(C)OC(=S)NC[C@H]1CN(c2ccc(N3CCOC3=O)cc2)C(=O)O1` [Example 107], the minimum inhibitory concentration (MIC) worked out at 4 µg/mL (≈ 10.5 µM) in series [1]; 4 µg/mL (≈ 10.5 µM) in series [2]; 4 µg/mL (≈ 10.5 µM) in series [3]; 4 µg/mL (≈ 10.5 µM) in series [4]; 8 µg/mL (≈ 21.1 µM) in series [5]; 32 µg/mL (≈ 84.3 µM) in series [6]. In series [7], the MIC turned out to be 2 µg/mL (≈ 5.27 µM).

On to `COC(=S)NC[C@H]1CN(c2ccc(N3CCOC3=O)cc2)C(=O)O1` [Example 100], for which the minimal inhibitory concentration (MIC) in series [1] was 1 µg/mL (≈ 2.85 µM); in series [2] it was 1 µg/mL (≈ 2.85 µM); in series [3], 0.5 µg/mL (≈ 1.42 µM); in series [4], 0.5 µg/mL (≈ 1.42 µM); in series [5], 1 µg/mL (≈ 2.85 µM); in series [6], 32 µg/mL (≈ 91.1 µM). Besides, the MIC in series [7] was 0.5 µg/mL (≈ 1.42 µM).

Regarding `COC(=S)NC[C@H]1CN(c2ccc(N3CC(=O)N(C)C3)c(F)c2)C(=O)O1` [Example 110], the minimal inhibitory concentration (MIC) in series [1] was determined as 1 µg/mL (≈ 2.61 µM); in series [2] it was 1 µg/mL (≈ 2.61 µM); in series [3], 0.5 µg/mL (≈ 1.31 µM); in series [4], 0.5 µg/mL (≈ 1.31 µM); in series [5], 1 µg/mL (≈ 2.61 µM); in series [6], 32 µg/mL (≈ 83.7 µM). For the same molecule, the MIC in series [7] worked out at 0.5 µg/mL (≈ 1.31 µM).

In the case of `CC(=O)NC[C@H]1CN(c2ccc(N3CCOC3=O)c(F)c2)C(=O)O1` [Example 40], the minimum inhibitory concentration (MIC) in series [1] is 8 µg/mL (≈ 23.7 µM); in series [2] it was 8 µg/mL (≈ 23.7 µM); in series [3], 4 µg/mL (≈ 11.9 µM); in series [4], 8 µg/mL (≈ 23.7 µM); in series [5], 16 µg/mL (≈ 47.4 µM); in series [6] it was 32 µg/mL (≈ 94.9 µM). The minimal inhibitory concentration (MIC) in series [7] turned out to be 8 µg/mL (≈ 23.7 µM).

`COC(=S)NC[C@H]1CN(c2ccc(N3CCN(Cc4ccccc4)C3=O)c(F)c2)C(=O)O1` [Example 116] displayed a melting point of 174 °C.

As to `COC(=S)NC[C@H]1CN(c2ccc(N3CCOC3=S)c(F)c2)C(=O)O1` [Example 92], the melting point turned out to be 197 °C.

Molecule `COC(=S)NC[C@H]1CN(c2ccc(N3CC(=S)N(C)C3)c(F)c2)C(=O)O1` [Example 126] yielded a melting point of 223 °C.

`CC(=O)NC[C@H]1CN(c2ccc(N3CCOC3=O)cc2)C(=O)O1` [Example 62]: the MIC in series [1] was found to be 8 µg/mL (≈ 25.1 µM); in series [2], 8 µg/mL (≈ 25.1 µM); in series [3], 1 µg/mL (≈ 3.13 µM); in series [4], 4 µg/mL (≈ 12.5 µM); in series [6] it was 32 µg/mL (≈ 100 µM); in series [7], 2 µg/mL (≈ 6.26 µM).

For `COC(=S)NC[C@H]1CN(c2cc(F)c(N3CCOC3=O)c(F)c2)C(=O)O1` [Example 99], the MIC was 2 µg/mL (≈ 5.16 µM) in series [1]; 2 µg/mL (≈ 5.16 µM) in series [2]; 2 µg/mL (≈ 5.16 µM) in series [3]; 2 µg/mL (≈ 5.16 µM) in series [4]; 2 µg/mL (≈ 5.16 µM) in series [5]; > 32 µg/mL in series [6]. Besides, in series [7], the MIC came to 2 µg/mL (≈ 5.16 µM).

Regarding `COC(=S)NC[C@H]1CN(c2ccc(N3CCOC3=O)c(F)c2)C(=O)O1` [Example 88], the MIC is 2 µg/mL (≈ 5.41 µM) in series [1]; 2 µg/mL (≈ 5.41 µM) in series [2]; 1 µg/mL (≈ 2.71 µM) in series [3]; 2 µg/mL (≈ 5.41 µM) in series [4]; 2 µg/mL (≈ 5.41 µM) in series [5]; > 32 µg/mL in series [6]. Moreover, the minimal inhibitory concentration (MIC) in series [7] was 1 µg/mL (≈ 2.71 µM).

Take `CC(=S)NC[C@H]1CN(c2ccc(N3CCN(C)C3=O)c(F)c2)C(=O)O1` [Example 79]: the MIC in series [1] is 8 µg/mL (≈ 21.8 µM); in series [2], 8 µg/mL (≈ 21.8 µM); in series [3] it was 2 µg/mL (≈ 5.46 µM); in series [4], 4 µg/mL (≈ 10.9 µM); in series [5], 4 µg/mL (≈ 10.9 µM); in series [6], 32 µg/mL (≈ 87.3 µM). Further, the minimal inhibitory concentration (MIC) in series [7] worked out at 2 µg/mL (≈ 5.46 µM).

For the molecule `COC(=S)NC[C@H]1CN(c2ccc(N3CC(=S)N(C)C3)c(F)c2)C(=O)O1` [Example 125], the minimal inhibitory concentration (MIC) in series [1] was 0.25 µg/mL (≈ 0.627 µM); in series [2], 0.5 µg/mL (≈ 1.25 µM); in series [3], 0.25 µg/mL (≈ 0.627 µM); in series [4], 0.5 µg/mL (≈ 1.25 µM); in series [5], 0.5 µg/mL (≈ 1.25 µM); in series [7], 0.25 µg/mL (≈ 0.627 µM).

As to `COC(=S)NC[C@H]1CN(c2ccc(N3CC(=O)N(CO)C3)c(F)c2)C(=O)O1` [Example 124], the MIC in series [1] turned out to be 0.25 µg/mL (≈ 0.627 µM); in series [2], 0.5 µg/mL (≈ 1.25 µM); in series [3], 0.25 µg/mL (≈ 0.627 µM); in series [4] it was 0.5 µg/mL (≈ 1.25 µM); in series [5], 0.5 µg/mL (≈ 1.25 µM); in series [7] it was 0.25 µg/mL (≈ 0.627 µM).

The molecule `COC(=S)NC[C@H]1CN(c2ccc(N3CC(=O)N(Cc4ccccc4)C3)c(F)c2)C(=O)O1` [Example 123] yielded a melting point of 192 °C.
